Laboratory results published in ChEMBL document CHEMBL4138146, “A Schmidt rearrangement-mediated synthesis of novel tetrahydro-benzo[1,4]diazepin-5-ones as potential anticancer and antiprotozoal agents” (Eur J Med Chem, 2017).

Tests used:
Type in all cases: functional
[1] = test system: RPMI-8226; test: Growth inhibition of human RPMI8226 cells assessed as cell growth at 10^-8 M incubated for 48 hrs by sulforhodamine B assay relative to control; conditions: RPMI-8226, 48 h, read-out: Activity
[2] = test system: IGROV-1; test: Growth inhibition of human IGROV1 cells assessed as cell growth at 10^-8 M incubated for 48 hrs by sulforhodamine B assay relative to control; conditions: IGROV-1, 48 h, read-out: Activity
[3] = test system: OVCAR-5; test: Growth inhibition of human OVCAR5 cells assessed as cell growth at 10^-8 M incubated for 48 hrs by sulforhodamine B assay relative to control; conditions: OVCAR-5, 48 h, read-out: Activity
[4] = test system: T47D; test: Growth inhibition of human T47D cells assessed as cell growth at 10^-8 M incubated for 48 hrs by sulforhodamine B assay relative to control; conditions: read-out: Activity
[5] = test system: LOX IMVI; test: Growth inhibition of human LOXIMVI cells assessed as cell growth at 10^-7 M incubated for 48 hrs by sulforhodamine B assay relative to control; conditions: read-out: Activity
[6] = test system: MDA-MB-231; test: Growth inhibition of human MDA-MB-231 cells assessed as cell growth at 10^-7 M incubated for 48 hrs by sulforhodamine B assay relative to control; conditions: MDA-MB-231, 48 h, read-out: Activity
[7] = test system: Hs-578T; test: Growth inhibition of human Hs 578T cells assessed as cell growth at 10^-7 M incubated for 48 hrs by sulforhodamine B assay relative to control; conditions: read-out: Activity
[8] = test system: HOP-92; test: Growth inhibition of human HOP92 cells assessed as cell growth at 10^-6 M incubated for 48 hrs by sulforhodamine B assay relative to control; conditions: HOP-92, 48 h, read-out: Activity
[9] = test system: NCI-H322M; test: Growth inhibition of human NCI-H322M cells assessed as cell growth at 10^-6 M incubated for 48 hrs by sulforhodamine B assay relative to control; conditions: read-out: Activity
[10] = test system: SF-268; test: Growth inhibition of human SF268 cells assessed as cell growth at 10^-6 M incubated for 48 hrs by sulforhodamine B assay relative to control; conditions: SF-268, 48 h, read-out: Activity
[11] = test system: SF-539; test: Growth inhibition of human SF539 cells assessed as cell growth at 10^-6 M incubated for 48 hrs by sulforhodamine B assay relative to control; conditions: SF-539, 48 h, read-out: Activity
[12] = test system: SK-MEL-2; test: Growth inhibition of human SK-MEL-2 cells assessed as cell growth at 10^-6 M incubated for 48 hrs by sulforhodamine B assay relative to control; conditions: SK-MEL-2, 48 h, read-out: Activity
[13] = test system: IGROV-1; test: Growth inhibition of human IGROV1 cells assessed as cell growth at 10^-6 M incubated for 48 hrs by sulforhodamine B assay relative to control; conditions: IGROV-1, 48 h, read-out: Activity
[14] = test system: OVCAR-4; test: Growth inhibition of human OVCAR4 cells assessed as cell growth at 10^-6 M incubated for 48 hrs by sulforhodamine B assay relative to control; conditions: OVCAR-4, 48 h, read-out: Activity
[15] = test system: 786-0; test: Growth inhibition of human 786-0 cells assessed as cell growth at 10^-6 M incubated for 48 hrs by sulforhodamine B assay relative to control; conditions: 786-0, 48 h, read-out: Activity
[16] = test system: DU-145; test: Growth inhibition of human DU145 cells assessed as cell growth at 10^-6 M incubated for 48 hrs by sulforhodamine B assay relative to control; conditions: DU-145, 48 h, read-out: Activity
[17] = test system: HOP-62; test: Growth inhibition of human HOP62 cells assessed as cell growth at 10^-5 M incubated for 48 hrs by sulforhodamine B assay relative to control; conditions: HOP-62, 48 h, read-out: Activity
[18] = test system: NCI-H226; test: Growth inhibition of human NCI-H226 cells assessed as cell growth at 10^-5 M incubated for 48 hrs by sulforhodamine B assay relative to control; conditions: NCI-H226, 48 h, read-out: Activity
[19] = test system: NCI-H23; test: Growth inhibition of human NCI-H23 cells assessed as cell growth at 10^-5 M incubated for 48 hrs by sulforhodamine B assay relative to control; conditions: NCI-H23, 48 h, read-out: Activity
[20] = test system: NCI-H460; test: Growth inhibition of human NCI-H460 cells assessed as cell growth at 10^-5 M incubated for 48 hrs by sulforhodamine B assay relative to control; conditions: NCI-H460, 48 h, read-out: Activity
[21] = test system: HT-29; test: Growth inhibition of human HT-29 cells assessed as cell growth at 10^-5 M incubated for 48 hrs by sulforhodamine B assay relative to control; conditions: HT-29, 48 h, read-out: Activity
[22] = test system: MDA-MB-435; test: Growth inhibition of human MDA-MB-435 cells assessed as cell growth at 10^-5 M incubated for 48 hrs by sulforhodamine B assay relative to control; conditions: MDA-MB-435, 48 h, read-out: Activity
[23] = test system: SK-MEL-28; test: Growth inhibition of human SK-MEL-28 cells assessed as cell growth at 10^-5 M incubated for 48 hrs by sulforhodamine B assay relative to control; conditions: SK-MEL-28, 48 h, read-out: Activity
[24] = test system: SK-MEL-5; test: Growth inhibition of human SK-MEL-5 cells assessed as cell growth at 10^-5 M incubated for 48 hrs by sulforhodamine B assay relative to control; conditions: SK-MEL-5, 48 h, read-out: Activity
[25] = test system: IGROV-1; test: Growth inhibition of human IGROV1 cells assessed as cell growth at 10^-5 M incubated for 48 hrs by sulforhodamine B assay relative to control; conditions: IGROV-1, 48 h, read-out: Activity
[26] = test system: RXF 393; test: Growth inhibition of human RXF393 cells assessed as cell growth at 10^-5 M incubated for 48 hrs by sulforhodamine B assay relative to control; conditions: RXF 393, 48 h, read-out: Activity
[27] = test system: HCT-116; test: Growth inhibition of human HCT116 cells assessed as cell growth at 10^-4 M incubated for 48 hrs by sulforhodamine B assay relative to control; conditions: HCT-116, 48 h, read-out: Activity
[28] = test system: SF-295; test: Growth inhibition of human SF295 cells assessed as cell growth at 10^-4 M incubated for 48 hrs by sulforhodamine B assay relative to control; conditions: SF-295, 48 h, read-out: Activity
[29] = test system: U-251; test: Growth inhibition of human U251 cells assessed as cell growth at 10^-4 M incubated for 48 hrs by sulforhodamine B assay relative to control; conditions: U-251, 48 h, read-out: Activity
[30] = test system: SK-MEL-2; test: Growth inhibition of human SK-MEL-2 cells assessed as cell growth at 10^-4 M incubated for 48 hrs by sulforhodamine B assay relative to control; conditions: SK-MEL-2, 48 h, read-out: Activity
[31] = test system: ACHN; test: Growth inhibition of human ACHN cells assessed as cell growth at 10^-4 M incubated for 48 hrs by sulforhodamine B assay relative to control; conditions: read-out: Activity
[32] = test system: MCF7; test: Growth inhibition of human MCF7 cells assessed as cell growth at 10^-4 M incubated for 48 hrs by sulforhodamine B assay relative to control; conditions: MCF7, 48 h, read-out: Activity
[33] = test system: BT-549; test: Growth inhibition of human BT549 cells assessed as cell growth at 10^-4 M incubated for 48 hrs by sulforhodamine B assay relative to control; conditions: BT-549, 48 h, read-out: Activity

## CCCCOc1nc2ccccc2cc1C1CNC(=O)c2ccccc2N1 (stereo not drawn)
[1]
  growth at 0.01 µM: 95%
[2]
  growth at 0.01 µM: 97%
[3]
  growth at 0.01 µM: 98%
[4]
  growth at 0.01 µM: 86%
[5]
  growth at 0.1 µM: 93%
[6]
  growth at 0.1 µM: 96%
[7]
  growth at 0.1 µM: 97%
[8]
  growth at 1 µM: 62%
[9]
  growth at 1 µM: 86%
[10]
  growth at 1 µM: 80%
[11]
  growth at 1 µM: 85%
[12]
  growth at 1 µM: 86%
[13]
  growth at 1 µM: 86%
[14]
  growth at 1 µM: 85%
[15]
  growth at 1 µM: 90%
[16]
  growth at 1 µM: 95%
[17]
  growth at 10 µM: 19%
[18]
  growth at 10 µM: 7%
[19]
  growth at 10 µM: 33%
[20]
  growth at 10 µM: 5%
[21]
  growth at 10 µM: 3%
[22]
  growth at 10 µM: -58%
[23]
  growth at 10 µM: 44%
[24]
  growth at 10 µM: 10%
[25]
  growth at 10 µM: 31%
[26]
  growth at 10 µM: 5%
[27]
  growth at 100 µM: -67%
[28]
  growth at 100 µM: -69%
[29]
  growth at 100 µM: -77%
[30]
  growth at 100 µM: -15%
[31]
  growth at 100 µM: -71%
[32]
  growth at 100 µM: -40%
[33]
  growth at 100 µM: -25%
